Assay results reported in ChEMBL document CHEMBL1201862, “PubChem BioAssay data set” (2004).
Active and inactive are the calls of the source.

Experiments:
HEK293 [1] = assay: NOD1 signaling inhibitors, primary screen, cell-based, luminescence, uHTS (AID 1578); assay type: functional; details: Homo sapiens
BJ [2] = assay: cytotoxicity toward BJ-TERT fibroblasts, dose response, cell-based, RAS-independent, luminescence (AID 1933); assay type: functional; details: Homo sapiens
HEK293 [3] = assay: cells; assay type: functional, cell-based; details: Homo sapiens
BJ [4] = assay: cells; assay type: functional, cell-based; details: Homo sapiens
HEK293 [5] = assay: cells; assay type: functional, cell-based; details: Homo sapiens; remark: listed apart in the source
[6] = target: Nucleotide-binding oligomerization domain-containing protein 2 (Homo sapiens, UniProt Q9HC29); assay: NOD2 signaling inhibitors, cell-based, luminescence, uHTS, HEK293 (AID 1566); assay type: functional
Sequence of Nucleotide-binding oligomerization domain-containing protein 2 (Q9HC29 whole entry, the tested form may be a part): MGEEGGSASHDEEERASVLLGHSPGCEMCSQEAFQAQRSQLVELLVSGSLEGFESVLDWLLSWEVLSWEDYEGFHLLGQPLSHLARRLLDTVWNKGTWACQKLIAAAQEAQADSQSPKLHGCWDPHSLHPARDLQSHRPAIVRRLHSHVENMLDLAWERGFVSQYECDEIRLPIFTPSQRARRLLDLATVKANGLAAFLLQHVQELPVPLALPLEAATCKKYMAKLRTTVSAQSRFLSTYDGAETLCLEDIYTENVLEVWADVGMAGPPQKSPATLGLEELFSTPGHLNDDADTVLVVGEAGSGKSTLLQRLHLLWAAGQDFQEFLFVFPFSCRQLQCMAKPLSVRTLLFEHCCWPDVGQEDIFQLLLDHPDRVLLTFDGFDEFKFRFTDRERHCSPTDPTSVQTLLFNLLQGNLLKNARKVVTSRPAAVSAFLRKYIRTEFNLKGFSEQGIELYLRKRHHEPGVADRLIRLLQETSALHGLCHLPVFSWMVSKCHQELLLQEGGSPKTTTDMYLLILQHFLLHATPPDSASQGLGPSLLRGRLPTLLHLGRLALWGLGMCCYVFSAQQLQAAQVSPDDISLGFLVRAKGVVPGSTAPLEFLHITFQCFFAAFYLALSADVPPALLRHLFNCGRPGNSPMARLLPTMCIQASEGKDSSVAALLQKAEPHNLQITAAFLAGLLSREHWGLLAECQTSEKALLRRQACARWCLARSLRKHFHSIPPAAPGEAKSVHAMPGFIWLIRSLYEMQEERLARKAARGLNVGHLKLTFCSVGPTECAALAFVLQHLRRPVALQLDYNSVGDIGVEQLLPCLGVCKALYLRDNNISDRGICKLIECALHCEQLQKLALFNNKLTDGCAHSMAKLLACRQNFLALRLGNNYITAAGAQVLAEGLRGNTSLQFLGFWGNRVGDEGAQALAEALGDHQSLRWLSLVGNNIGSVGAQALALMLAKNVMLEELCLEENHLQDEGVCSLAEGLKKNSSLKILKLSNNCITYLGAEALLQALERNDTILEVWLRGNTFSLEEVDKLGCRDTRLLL

HEK293 [7] = assay: NOD2 signaling inhibitors in MDP-stimulated cells, cell-based, uHTS, luminescence (AID 2001); assay type: functional; details: Homo sapiens
HEK293 [8] = assay: cells; assay type: functional, cell-based; details: Homo sapiens; remark: listed apart in the source
BJ [9] = assay: cytotoxicity toward BJ-TERT-LT-ST fibroblasts, dose response, cell-based, RAS-independent, luminescence (AID 1935); assay type: functional; details: Homo sapiens;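 also: BJ fibroblasts immortalized with TERT plus LT and ST oncogenes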
[10] = cytotoxicity toward DRD oncogenic fibroblasts, dose response, cell-based, non-viral oncogenic, luminescence (AID 1934); assay type: functional; details: Homo sapiens
[11] = target: T1, Microphthalmia-associated transcription factor (Homo sapiens, UniProt O75030); assay: TRPM1 promoter luciferase signal decrease, dose response, MITF inhibitor project, cell-based, SK-MEL-5, cherry-picked, set 3 (AID 493073); assay type: functional
T1 sequence (O75030 whole entry): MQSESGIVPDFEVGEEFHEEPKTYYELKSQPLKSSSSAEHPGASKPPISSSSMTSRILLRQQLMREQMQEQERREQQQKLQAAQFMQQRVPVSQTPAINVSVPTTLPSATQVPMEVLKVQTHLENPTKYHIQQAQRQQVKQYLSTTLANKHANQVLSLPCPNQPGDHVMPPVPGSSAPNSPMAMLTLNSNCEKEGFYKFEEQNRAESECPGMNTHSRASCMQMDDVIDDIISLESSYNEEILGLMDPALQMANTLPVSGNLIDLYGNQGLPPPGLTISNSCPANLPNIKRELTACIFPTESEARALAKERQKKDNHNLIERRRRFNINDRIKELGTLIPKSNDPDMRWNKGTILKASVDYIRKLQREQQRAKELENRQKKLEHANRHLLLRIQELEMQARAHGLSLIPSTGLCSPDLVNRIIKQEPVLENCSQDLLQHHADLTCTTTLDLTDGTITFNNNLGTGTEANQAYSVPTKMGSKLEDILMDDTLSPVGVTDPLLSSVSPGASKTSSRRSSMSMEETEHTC

[12] = target: T2, Replicative DNA helicase DnaB (Mycobacterium tuberculosis, UniProt P9WMR3); assay: DnaB intein splicing inhibitors, dose response, biochemical, cell-free fluorescence (AID 449749); assay type: functional
T2 sequence (P9WMR3 whole entry): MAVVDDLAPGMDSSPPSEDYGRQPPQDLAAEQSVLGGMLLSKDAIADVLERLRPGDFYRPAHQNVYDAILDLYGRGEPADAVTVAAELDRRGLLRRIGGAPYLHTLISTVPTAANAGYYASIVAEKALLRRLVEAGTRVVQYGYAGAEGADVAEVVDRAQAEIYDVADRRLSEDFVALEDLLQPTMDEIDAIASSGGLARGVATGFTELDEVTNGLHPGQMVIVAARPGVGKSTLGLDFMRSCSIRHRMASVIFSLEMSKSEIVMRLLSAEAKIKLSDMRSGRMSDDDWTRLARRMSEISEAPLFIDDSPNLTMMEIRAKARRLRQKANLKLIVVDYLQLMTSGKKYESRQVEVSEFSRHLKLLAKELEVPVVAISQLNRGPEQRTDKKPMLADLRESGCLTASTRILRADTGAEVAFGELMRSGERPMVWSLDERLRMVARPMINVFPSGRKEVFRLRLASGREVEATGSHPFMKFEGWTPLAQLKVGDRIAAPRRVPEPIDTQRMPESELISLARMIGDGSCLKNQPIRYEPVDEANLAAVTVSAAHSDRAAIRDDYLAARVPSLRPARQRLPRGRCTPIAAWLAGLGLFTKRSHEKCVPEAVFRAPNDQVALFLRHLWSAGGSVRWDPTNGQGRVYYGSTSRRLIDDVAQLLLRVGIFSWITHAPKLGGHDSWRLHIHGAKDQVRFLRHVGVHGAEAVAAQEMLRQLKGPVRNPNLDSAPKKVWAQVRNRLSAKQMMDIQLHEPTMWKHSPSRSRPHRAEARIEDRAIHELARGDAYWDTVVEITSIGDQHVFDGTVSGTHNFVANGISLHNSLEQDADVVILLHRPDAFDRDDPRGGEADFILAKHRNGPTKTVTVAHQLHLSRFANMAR

Protein RecA = target: T3, Protein RecA (Mycobacterium tuberculosis, UniProt P9WHJ3); assay: Fluorescence Cell-Free Homogeneous Dose Retest to Identify Inhibitors of RecA-Intein Splicing Activity. [Related pubchem assays (depositor defined):AID2097, AID2223, AID489010, AID492950]; assay type: functional
T3 sequence (P9WHJ3 whole entry): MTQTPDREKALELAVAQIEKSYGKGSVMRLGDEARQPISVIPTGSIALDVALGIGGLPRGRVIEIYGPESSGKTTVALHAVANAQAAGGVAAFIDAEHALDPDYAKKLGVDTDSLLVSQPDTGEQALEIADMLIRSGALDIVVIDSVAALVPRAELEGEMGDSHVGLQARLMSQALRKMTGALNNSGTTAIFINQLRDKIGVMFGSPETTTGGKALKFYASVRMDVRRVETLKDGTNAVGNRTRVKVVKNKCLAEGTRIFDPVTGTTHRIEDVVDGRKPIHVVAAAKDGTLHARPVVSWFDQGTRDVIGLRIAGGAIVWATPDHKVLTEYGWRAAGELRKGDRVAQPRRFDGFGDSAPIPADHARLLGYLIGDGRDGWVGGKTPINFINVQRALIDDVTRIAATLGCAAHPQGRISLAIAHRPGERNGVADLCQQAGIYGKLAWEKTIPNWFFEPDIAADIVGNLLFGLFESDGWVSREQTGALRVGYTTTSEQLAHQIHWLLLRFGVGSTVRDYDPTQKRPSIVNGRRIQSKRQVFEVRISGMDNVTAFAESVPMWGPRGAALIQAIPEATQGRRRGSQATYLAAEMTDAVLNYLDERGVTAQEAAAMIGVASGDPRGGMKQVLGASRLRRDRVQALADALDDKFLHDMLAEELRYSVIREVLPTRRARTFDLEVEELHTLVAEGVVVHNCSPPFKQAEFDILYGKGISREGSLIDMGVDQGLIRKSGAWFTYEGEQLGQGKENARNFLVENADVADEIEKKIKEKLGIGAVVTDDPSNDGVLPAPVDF

[13] = target: Glyceraldehyde-3-phosphate dehydrogenase (Homo sapiens, UniProt P04406)
Sequence of Glyceraldehyde-3-phosphate dehydrogenase (P04406 whole entry): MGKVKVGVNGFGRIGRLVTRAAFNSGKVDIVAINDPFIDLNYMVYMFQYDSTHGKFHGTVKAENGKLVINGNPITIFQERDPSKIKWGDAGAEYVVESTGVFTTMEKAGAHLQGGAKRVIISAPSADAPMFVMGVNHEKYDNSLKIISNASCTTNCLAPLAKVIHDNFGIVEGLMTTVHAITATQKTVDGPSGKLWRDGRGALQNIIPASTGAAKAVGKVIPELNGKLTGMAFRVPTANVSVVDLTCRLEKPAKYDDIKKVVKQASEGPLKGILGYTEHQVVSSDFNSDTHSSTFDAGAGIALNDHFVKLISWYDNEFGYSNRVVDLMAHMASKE

[14] = target: T4, Alkaline phosphatase, tissue-nonspecific isozyme (Homo sapiens, UniProt P05186); assay: human TNAP enzyme inhibitors, SAR follow-up, biochemical, luminescent, dose response (AID 1056)
T4 sequence (P05186 whole entry): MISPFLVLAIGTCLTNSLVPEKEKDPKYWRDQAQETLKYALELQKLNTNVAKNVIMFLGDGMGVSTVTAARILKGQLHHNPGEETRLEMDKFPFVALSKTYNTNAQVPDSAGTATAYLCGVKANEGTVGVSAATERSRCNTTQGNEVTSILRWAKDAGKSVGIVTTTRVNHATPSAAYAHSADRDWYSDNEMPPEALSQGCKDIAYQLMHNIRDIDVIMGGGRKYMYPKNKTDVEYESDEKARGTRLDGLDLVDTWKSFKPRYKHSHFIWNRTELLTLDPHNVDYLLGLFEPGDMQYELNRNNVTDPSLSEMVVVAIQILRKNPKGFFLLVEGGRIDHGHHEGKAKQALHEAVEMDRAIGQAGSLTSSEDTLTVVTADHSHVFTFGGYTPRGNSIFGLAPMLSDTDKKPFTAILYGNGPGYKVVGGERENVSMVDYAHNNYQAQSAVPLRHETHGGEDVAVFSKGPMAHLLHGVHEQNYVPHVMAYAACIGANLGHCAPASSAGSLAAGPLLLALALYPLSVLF

## O=C(CCl)Nc1cccc(S(=O)(=O)N2CCCCCC2)c1
HEK293 [1]
  EC50: 10.1 µM (active)
BJ [2]
  EC50: 4.64 µM (inconclusive)
HEK293 [3]
  IC50: 4.83 µM (active)
BJ [4]
  EC50: 22 µM (active)
HEK293 [5]
  IC50: > 20 µM (inactive)
[6]
  EC50: 19.6 µM (active)
HEK293 [7]
  IC50: 8.19 µM (active)
HEK293 [8]
  IC50: > 20 µM (inactive)
BJ [9]
  EC50: 10.7 µM (active)
[10]
  EC50: 9.38 µM (active)
[11]
  AC50: 11.8 µM (active)
[12]
  AC50: 23.5 µM (active)
Protein RecA
  EC50: 22.6 µM (active)

## COc1ccc(C(C)C)cc1S(=O)(=O)Nc1cccnc1
[13]
  IC50: > 100 µM (not active)
[14]
  IC50: > 100 µM (inactive)
